Series [1] relates to Rice radicles, cultured rice cells (rice protoplasts), tobacco leaves, and Arabidopsis leaves. In words: Quantitative efficiency of introduction of GFP by eight cell-penetrating peptides in four tissues. Particulars: rank among eight cell-penetrating peptides over four tissues (32 treatment groups). It counts as cell-based. On the procedure:
Eight kinds of cell-penetrating peptides shown in Table 1 above and GFP were separately mixed in PBS (137 mM NaCl, 2.7 mM KCl, 10 mM Na2HPO4, 1.76 mM KH2PO4) (pH 7.4) so as to achieve a final concentration of 50 μM, and rice radicles were immersed in the mixtures. The eight kinds of cell-penetrating peptides are typical peptides selected from arginine-rich peptides, amphiphilic peptides, and peptides each having an RXLR sequence, and were prepared by chemical synthesis.
The immersion treatment was carried out for 16 hours at room temperature, followed by low-temperature treatment at 4° C. for 4 hours. The samples were washed until fluorescence was not observed in a negative control group treated with GFP alone, and cells were counted under a fluorescence stereomicroscope to calculate ratios of fluorescent cells.
(2) The efficiency of introduction of GFP by the eight kinds of cell-penetrating peptides was examined quantitatively in the same manner as in (1) above. Rice radicles (FIG. 2a), cultured rice cells (rice protoplasts) (FIG. 2b), tobacco leaves (FIG. 2c), and Arabidopsis leaves (FIG. 2d) were used as tissues to be examined. A total of 32 treatment groups were evaluated.

Another series deals with Arabidopsis. In words: Flowering-promoting effect in Arabidopsis plant body after direct introduction of florigen. It counts as in vivo. The procedure:
A mixed solution prepared by mixing the florigen mHd3a-1 and the cell-penetrating peptide R9 in ten-times diluted PBS in the same manner as in Example 3 was used for treatment of seedling of Arabidopsis at the time of cotyledon expansion about three days after seeding. It should be noted that the shoot apices in seedling of Arabidopsis was exposed at the time of cotyledon expansion. The treatment was carried out at room temperature for 2 days. After that, the mixed solution was washed, and the plants were cultivated on the MS medium under a short-day condition (day length: 10 hours) for from 30 to 40 days to examine the timing of the flowering. The examination condition of the start of the flowering was defined as the start of bolting or a state where differentiation of flower buds was visually observed, and whether the flowering was early or late was evaluated based on the number of rosette leaves at the time when the state described above was achieved. In the case of Arabidopsis, rosette leaves are usually extracted, and the extraction of the rosette leaves is stopped when the flowering is started. When the flowering is started in the early stage, the number of the leaves is small because only a small number of the rosette leaves can be extracted, while when it takes a long time before the flowering is started, the number of the leaves is large because many rosette leaves can be extracted.
FIG. 12 and FIG. 13 show the results. FIG. 12 are photographs taken on day 14 and day 21, when the cultivation start date under the short-day condition is defined as day 0. The enlarged view is one obtained by enlarging the area enclosed by a dashed line in the photograph of a flower bud of an individual treated with the mixed solution of mHd3a-1 and R9, which was taken on day 21. In addition, the numbers in the graph of FIG. 13 represent numbers of individuals that achieved the flowering at each number of leaves. […]

For series [2], the system named is rice root epidermal cells. Briefly: Effect of molar ratio of cell-penetrating peptide to protein on efficiency of introduction of GFP. It counts as cell-based. On the procedure:
(3) The effect of the molar ratios of the cell-penetrating peptides to the protein on the efficiency of introduction of the protein was examined. The molar ratios of the cell-penetrating peptides (Avr1b and R9) to the protein were changed to 0.01, 0.1, 1, and 10, and the efficiency of introduction of GFP into rice root epidermal cells was evaluated.

Series [3] relates to shoot apical tissues of Arabidopsis. In words: Introduction of florigen into cells of shoot apical tissue of Arabidopsis. Particulars: mixed solution with R9 as in Example 3. It counts as cell-based. The procedure:
(§1) The mHd3a-1 prepared by high level expression in Example 2 was labeled with a fluorochrome FITC. Subsequently, a rice shoot apical tissue was exposed under a stereomicroscope, and the cell-penetrating peptide and the florigen were mixed and used for treatment of the plant tissue in the same manner as in Example 1. A mixed solution was prepared by adding the florigen at a final concentration of 50 μM and the cell-penetrating peptide R9 at a final concentration of 500 μM in PBS (pH 7.4). The mixed solution was added dropwise to the exposed shoot apical tissue to bring the mixed solution into contact with the tissue. The tissue was treated for 16 hours at room temperature.
(§2) In the same manner as in Example 3, the mixed solution of the cell-penetrating peptide and the florigen was added dropwise to shoot apical tissues of corn and Arabidopsis to treat the tissues.

Series [4] relates to flower-bud formation marker gene OsMADS15. Briefly: Florigen function in transient expression system for protoplasts (with OsFD1), RT-PCR. It is filed as cell-based. Particulars: transiently expressed with OsFD1 in protoplasts; compared among five mutated Hd3a's. The text has this:
(2) The florigen functions were examined for mutated Hd3a partial peptides of mHd3a-2F (full-length, having C43L, C109S, and C166S amino acid substitutions) and m-Hd3a-3F (full-length, having K31A, Y136A, and W140A amino acid substitutions) in addition to the mutated Hd3a's examined in (1) above, i.e., mHd3a-1, mHd3a-2T, and mHd3a-3T. The as say system used is a transient expression system for protoplasts. When the mutated Hd3a and a transcription factor OsFD1 are transiently expressed in protoplasts in this system, a flower-bud formation marker gene OsMADS15 is transcriptionally activated if the Hd3a is functional. The transient expression system for protoplasts was constructed according to the method described in Non Patent Literature 2. In addition, the expression of the OsMADS15 gene was examined by RT-PCR method according to the method described in Non Patent Literature 2.

The next series relates to rice shoot apical tissue. In words: Introduction of FITC-labeled florigen into cell of rice shoot apical tissue. It is filed as cell-based. The following applies: florigen 50 μM, R9 500 μM in PBS (pH 7.4). The procedure:
as §1

The test system of series [5] is flower-bud formation marker gene (OsMADS15 gene). In words: Expression of flower-bud formation marker gene after direct introduction of florigen, wild-type rice, real-time quantitative RT-PCR. It is filed as in vivo. The following applies: wild-type rice shoot apical tissue; introduced with R9 as in Example 3. The text has this: (§3) (1) A rice shoot apical tissue into which the florigen was introduced was isolated in the same manner as in Example 3. RNA was extracted from the rice shoot apical tissue by a conventional method, and expression of a flower-bud formation marker gene (OsMADS15 gene) was examined by real-time quantitative RT-PCR (see Non Patent Literature 2 for the method).

Series [6] can be described thus: Search for florigen capable of high level expression (soluble fractions). The following applies: recombinant expression of mutated Hd3a. The text has this:
FIG. 5 is a photograph showing mHd3a-1 separated and detected by SDS-PAGE through a conventional method.

The test system of series [7] is flower-bud formation marker gene. In words: Expression of flower-bud formation marker gene after direct introduction of florigen, rice with all florigens inactivated (Hd3a-RFT1 double RNAi). It is filed as in vivo. Particulars: introduced with R9 as in Example 3.
From the text: as §3
(2) Further, rice in which all florigens were inactivated (Hd3a-RFT1 double RNAi) (Komiya et al. (2008) Development 135:767-774) was subjected to the same experiment as in (1).

Series [8] relates to APETALA1 (AP1) gene, FRUITFULL (FUL) gene, and SQUAMOSA PROMOTER BINDING-LIKES (SPL3) gene. Briefly: Induction of expression of flowering-responsive genes in Arabidopsis after direct introduction of florigen, real-time quantitative RT-PCR. It is filed as in vivo. The following applies: shoot apical tissue after 2 weeks cultivation. The text has this: The florigen was introduced directly into Arabidopsis in the same manner as in Example 6, and then the plants were cultivated for 2 weeks, followed by collection of a shoot apical tissue from each individual. RNA was extracted from the shoot apical tissue collected from each individual, and cDNA was synthesized based on a reverse transcription reaction. After that, the expression levels of APETALA1 (AP1) gene, FRUITFULL (FUL) gene, and SQUAMOSA PROMOTER BINDING-LIKES (SPL3) gene were examined by real-time quantitative RT-PCR (see Yamaguchi et al. Dev. Cell 17:268-278 (2009)).

In series [9] the test system is shoot apical tissues of corn. Briefly: Introduction of florigen into cells of shoot apical tissue of corn. Particulars: mixed solution with R9 as in Example 3. It is filed as cell-based. On the procedure: as §1, §2

“R9: cell-penetrating peptide RRRRRRRRR (SEQ ID NO: 7), arginine-rich, artificially designed sequence (Membrane-permeable peptide R9)”: the “comprehensive efficiency of introduction of GFP” value in [1] was “second highest”. Moreover, the “start of the flowering when the number of the leaves was 14 or less (almost all the plants)” value in the series with Arabidopsis (R9 alone, short-day condition) is “did not start the flowering”. Also, the “change of introduction efficiency as molar ratio increased in the order of 0.01, 0.1, 1, and 10” value in series [2] (mixed solution of cell-penetrating peptide and GFP) is “the introduction efficiency increased”. In [2] (molar ratio of cell-penetrating peptide to protein 10 compared to 1), the “increase of efficiency of introduction of GFP, molar ratio 10 versus molar ratio 1” value was 2.5 times.
Take “mHd3a-1: mutated rice Hd3a, full-length, having K31A and E57A amino acid substitutions”: in [3], the “introduction into the shoot apical tissue of Arabidopsis” value is “introduced efficiently” and the “localization in the cell of the shoot apical tissue of Arabidopsis” value is given as “localized accurately in the nucleus”. Moreover, the “activation of transcription of the OsMADS15 gene” value in series [4] is listed as “most desirably activated”. The “localization in the cell of the rice shoot apical tissue” value with rice shoot apical tissue (16 hours) was “localized accurately in the nucleus”. Besides, the “introduction into the rice shoot apical tissue” value in the series on rice shoot apical tissue (16 hours at room temperature) is listed as “introduced efficiently”. Moreover, the “expression of the flower-bud formation marker gene (OsMADS15 gene)” value in series [5] is given as “can activate expression”. In addition, the “high level expression and soluble fractions” value in series [6] was “capable of high level expression and providing soluble fractions”. For the same substance, in series [7], the “expression of the flower-bud formation marker gene” value is given as “could activate the expression”. For the same substance, the “plants able to start the flowering when the number of the leaves was 14 or less” value in the series on Arabidopsis (Arabidopsis seedlings treated 2 days with mixed solution with R9 in ten-times diluted PBS, short-day condition 30 to 40 days) is given as “about 30%”. Besides, the “individuals treated in which induction of the expression was observed” value in [8] is recorded as “about 30%”. The “expression of AP1, FUL and SPL3 genes” value in series [8] (eIF4a internal standard) is recorded as “activated the expression of the three genes”. Further, in [9], the “introduction into the shoot apical tissue of corn” value is “introduced efficiently” and the “localization in the cell of the shoot apical tissue of corn” value is given as “localized accurately in the nucleus”.
“mHd3a-2T: partial peptide of Hd3a, amino acids at positions from 6 to 170, having C43L, C109S, and C166S substitutions”: in series [6], the “high level expression and soluble fractions” value is “capable of high level expression and providing soluble fractions”.
In the case of “mHR: mutated Hd3a incapable of being bound to a receptor (Hd3a R64D F103A R132D), used mixed with R9”, the “effect of promoting the start of the flowering” value in the series with Arabidopsis (used instead of mHd3a-1 in mixed solution with R9, short-day condition) is listed as “not observed”.
Consider “Tat: cell-penetrating peptide YGRKKRRQRRR (SEQ ID NO: 2), arginine-rich, derived from Tat protein of HIV virus (Membrane-permeable peptide Tat)”, for which, in series [1], the “comprehensive efficiency of introduction of GFP” value is listed as “second highest”.
“mHd3a-3T: partial peptide of Hd3a, amino acids at positions from 8 to 170, having K31A, Y136A, and W140A substitutions”: in series [6], the “high level expression and soluble fractions” value is “capable of high level expression and providing soluble fractions”.

Source of the values: patent US20150011393A1, “METHOD FOR INTRODUCING FLORIGEN” (priority 2012, published 2015).
